This is an account of results in US20220194989A1, “SUPRAMOLECULAR POLYPEPTIDE COMPOSITIONS AND METHODS OF MAKING AND USING THE SAME” (Duke University, priority 2019, published 2022).

One data set deals with DC2.4 dendritic cells. Kind of data set: alamarBlue cell viability assay. As to conditions: 0.2-200 μM, compared to untreated cells. In general terms: Alamar Blue is a resazurin reagent that responds to reducing activity.
The subject of the next data set is RAW264.7 macrophages. Kind of data set: alamarBlue cell viability assay. As to conditions: 0.2-200 μM, compared to untreated cells.
In data set [1] the test system is mice. Kind of data set: Footpad swelling after footpad injection. To be noted: single footpad injection, measured over 72 hours, compared to PBS.
Description: (§1) (a) Footpad swelling measured 3, 6, 12, 24, 48, and 72 hours following a single footpad injection of (KEYA)20Q11 (red), Alum (dark gray), or PBS (light gray) and subtracted from baseline measurements. […] Mean+/−s.e.m. shown. n=3-5 experimental replicates per group.
(§2) Mice were injected sub-dermally on the back-right footpad with (KEYA)20Q11, Alum, or PBS to determine extent of inflammation caused by the nanomaterial (FIG. 7a). […] Footpad swelling was measured over the course of 72 hours and normalized to a pre-injection footpad thickness measurement.
The test system of another data set is influenza. The experiment in a line: Unpublished studies of NP-Q11 flu epitope. It counts as in vivo.
The test system of a further data set is splenocytes. Kind of data set: Flow cytometry of splenocytes after s.c. immunization. It counts as in vivo, mice. To be noted: spleens 5 days after last boost; for CD4+CD25hi T cells (Tregs): versus PBS. The text has this:
FIG. 8. […] (a) Cartoon of s.c. immunization schedule with either (KEYA)20Q11 (red), Q11 (blue), PBS (gray). Spleens were harvested at week 6. Percent of (b) CD3+ cells and (c) CD3+IL4+ cells from total number of live cells. Percent of (d) CD4+ cells and (e) CD4+IL4+ cells from total number of CD3+ cells. […] Mean+/−s.e.m. shown. n=4-5 experimental replicates per group.
Mice were immunized and boosted twice with (KEYA)20Q11, Q11, or PBS ([…]) and their spleens were harvested 5 days after the last boost. After the splenocytes were stimulated overnight with their immunizing peptide, cells were stained and taken to flow cytometry for analysis.
A general note: Flow cytometry measures light scatter and fluorescence of single cells or particles in a stream.

A further data set has as its system DC2.4 cells. The experiment in a line: Confocal microscopy of nanofiber internalization. It counts as cell-based. As to conditions: after 24 hours.
The conditions of data set [2]: cited from earlier work.
For a further data set, the system named is local macrophages. Kind of data set: In vivo APC uptake of fluorescent nanofibers after i.p. injection. Further details: species or system mice. As to conditions: 2 hours.
Details of data set [3]: species or system mice. As to conditions: mouse, in vivo; for persistence at the injection site (average days fluorescence detected): sc. An excerpt:
Persistence at the injection site.

Data set [4] deals with mice. Kind of data set: Multiplex cytokine analysis of lavage fluid after i.p. injection. As to conditions: for IFNγ in lavage fluid / IL1β in lavage fluid / IL6 in lavage fluid: 2-hour i.p. stimulation, versus PBS. The class given is in vivo. The text has this: Immune activation is not mediated by inflammation.
The next data set concerns Dendritic cells. Kind of data set: In vivo APC uptake of fluorescent nanofibers after i.p. injection. More on the design: species or system mice. To be noted: 2 hours.
Data set [5] relates to lymphocytes from draining lymph nodes. The experiment in a line: ELISpot on draining lymph nodes restimulated with immunizing peptide. It counts as in vivo, mice. As to conditions: for induction of antibody and T cell responses: summary of antibody and ELISpot results.
For data set [6], the system named is mice. The experiment in a line: Immunization with four (KEYA)nQ11 lengths, anti-immunizing peptide IgG titers. The class given is in vivo.
Data set [7] deals with purified lymphocyte populations from spleens. Kind of data set: ELISpot after immunization with (KEYA)20Q11 co-assembled with NP-Q11. To be noted: week 3.5. The class given is in vivo, mice.
In data set [8] the test system is Lymphocyte populations purified from spleens. Kind of data set: ELISpot after immunization with (KEYA)20Q11 co-assembled with PADREQ11. The class given is in vivo, mice. As to conditions: co-assembled with 2.5% PADREQ11; 3.5 weeks. On the procedure:
FIG. 6. (KEYA)20Q11 can enhance the T cell stimulatory capabilities of other T and B cell epitopes. (a) ELISpot from mice immunized and boosted with nanofiber formulations containing 2.5% PADREQ11 and either 97.5% (dark red), 2.5% (light red), or 0% (gray) (KEYA)20Q11 co-assembled with Q11 into a 2 mM nanofiber. […] (b) ELISpot from mice immunized and boosted with nanofiber formulations containing 50% NPQ11 and either 50% (red), or 0% (gray) (KEYA)20Q11 co-assembled with Q11 into a 2 mM nanofiber. […] (c) Cartoon of immunization schedule for figures (d) and (e). All groups contained 50% TNFQ11 (d) anti-TNF IgG antibody titers for groups described in (c). (e) anti-TNF IgG1 and IgG2c antibodies. *p<0.05, **p<0.01, ***p<0.001 by 2way ANOVA with Sidak's post hoc test.
Enhancement of co-assembled T and B cell epitopes. Having characterized (KEYA)20Q11 and the subsequent humoral and cellular responses, the inventors tested the hypothesis that co-assembling (KEYA)20Q11 with other epitopes may enhance the response to the co-assembled epitope. Previous work has established a method for ensuring co-assembly of multiple epitopes onto a single nanofiber^38. Highlighting an advantage of the Q11 system, we were able to systematically add and titrate co-assembled (KEYA)20Q11 with a variety of T and B cell epitopes to investigate the resulting magnitude of immune responses. […]

For data set [9] the following is noted: mouse, in vivo.
Description: Mice injected with TAMRA labeled Q11 on the left flank and (KEYA)20Q11 on the right were (a) measured with IVIS immediately after injection and daily for 7 days. (b) The number of days the fluorescence was detected was graphed to compare the persistence between the two groups. (c) The radiant efficiency was calculated from the images collected and graphed on a log 10 scale. (d) Total amount of remaining nanofiber and (e) overlap between nanofibers and CD45+ cells calculated from confocal images. (f) Representative confocal images from injection site skin collected on Day 7.
Persistence at the injection site. […] Uptake by APCs occurs primarily at the s.c. injection site, so we used IVIS to image mice injected with fluorescently labeled nanofibers over the course of a week. Mice were injected with Q11 on their left flank and (KEYA)20Q11 on their right (FIG. 9a) and images were taken daily to measure the retention of each nanomaterial at the injection site. […] Skin sections were taken of the injection site on day 7 and stained with CD45, a common lymphocyte marker, and DAPI, a common cell nuclei stain (FIG. 9d-f).
In data set [10] the test system is mice. The experiment in a line: Immunization with Q11 nanofibers containing 1-50% (KEYA)20Q11, anti-p(KEYA)20 IgG titers. As to conditions: 2 mM total formulation with Q11, boosted every 2.5 weeks. The class given is in vivo. On the procedure:
FIG. 5. Titration of (KEYA)20 component modulates the strength of engagement with APCs and humoral immunity while maintaining a Type 2 T cell phenotype. Uptake of TAMRA labeled (KEYA)20Q11 in (a) DC2.4 dendritic cells, RAW264.7 macrophages, and B-LCL human B cells stimulated for 0.1, 0.5, 2, 24, and 72 (B cells only) hours measured by flow cytometry. 100% refers to the molar percent of (KEYA)20 incorporated into a 2 mM Q11 nanofiber. 10% indicates 10% (KEYA)20Q11 and 90% Q11, while 0% indicates the entire nanofiber contains only Q11. All groups included 2.5% fluorescent TAMRA-Q11. (b) Representative confocal images of fluorescent Q11 and (KEYA)20Q11 stimulated DC2.4 cells. Nanofibers seen in red, cell nuclei in blue, and cell borders in green. […] (c) Populations of mouse APCs containing nanofibers collected 12 hours after i.p. injection. (d) Cartoon indicating the boosting schedule and graph of the anti-p(KEYA)20 IgG antibody titers. 50% (KEYA)20 is represented darkest red, 33% (KEYA)20 in the second darkest, 10% (KEYA)20 in the second lightest, and 1% (KEYA)20 in the lightest color. Week 16 IgG1 and IgG2c isotypes are shown in (e), (KEYA)20 only produces an IgG1 response when at 33% and 50%. […]

The nature of data set [11]: Nanofiber formation (AFM, ThT binding). It counts as physicochemical. As to conditions: physiological conditions.
For data set [12], the system named is mice. To be noted: mouse, in vivo.
Description: as §1, §2
Where [13] appears, read: 12-hour i.p. stimulation, compared to PBS.

Like-named read-outs stand apart in the source and are kept apart here. Where no end group is shown, it is not given here.

For `C[S+](C)[O-]` [DMSO], the “cell viability (health of the dendritic cells)” value in the data set on DC2.4 dendritic cells is on record as “dose dependent cytotoxic response”. Also, in the data set on RAW264.7 macrophages, the “cell viability (health of the macrophages)” value is “dose dependent cytotoxic response”.
As to Alum, the footpad swelling entry with mice [1] was “significantly larger swelling”.
With “NH2-QVYSLIRPNENPAHK SGSG QQKFQFQFEQQ-Am (H-QVYSLIRPNENPAHKSGSGQQKFQFQFEQQ-NH2; also: linked to (KEYA)20Q11) [NP-Q11]”, the “protection against an influenza challenge” value in the data set on influenza (unpublished studies) is recorded as “does not raise strong enough responses to be protective”. Further, in the data set with influenza (unpublished work), the “T cell response phenotype” value was “IFNγ biased T cell responses”.
For the molecule “QQKFQFQFEQQ (Synthetic- KEYA Q11) [unmodified nanofiber, reference compound]”, the “CD4+CD25hi T cells (Tregs)” value in the data set on splenocytes is “significantly increases”. Also, the “internalization seen by confocal microscopy” value in the data set on DC2.4 cells is recorded as “minimally internalized”. For the same molecule, in [2] (in vivo), the inflammation after injection entry was “not inflammatory”. The humoral response entry in data set [2] (previous reports) is listed as “no humoral response”. Moreover, in the data set on local macrophages, the “local macrophages with nanofiber uptake” value is around 100%. Also, the “persistence at the injection site (average days fluorescence detected)” value in data set [3] worked out at 3 days. In addition, in the data set with mice [4], the “IFNγ in lavage fluid” value is given as “indistinguishable from PBS”, the “IL1β in lavage fluid” value is on record as “indistinguishable from PBS” and the “IL6 in lavage fluid” value is “indistinguishable from PBS”. Besides, the “dendritic cell population with nanofiber uptake” value with Dendritic cells is on record as “about 25%”.
Consider “SSQNSSDKPVAHVVANHQVE-SGSG-QQKFQFQFEQQ (SSQNSSDKPVAHVVANHQVESGSGQQKFQFQFEQQ; Synthetic- TNF-Q11 TNF4-23 linked to (KEYA)20Q11)”, for which the effect on inflammation entry in data set [2] (when a strong B cell response is raised) is listed as “effectively reduce inflammation”.
Turning to “XQQKFQFQFEQQ (not fully specified; X: randomised place (mixture)) [(KEYA)1Q11]”, the “induction of antibody and T cell responses” value in [5] was “ineffective at inducing immune responses”. In addition, in the data set with mice [6] (boosted every 2.5 weeks, 14-week experiment), the “(KEYA)n-specific IgG antibodies” value is on record as “no humoral response”.
As for “XXXXXXXXXXXXXXXXXXXXQQKFQFQFEQQ [(KEYA)20Q11]”, in the data set on splenocytes, the “CD4+ T cells” value is listed as “slight reduction”, the “general proliferation of T cells (total percent of CD3+ cells)” value is “no effect”, the “percent of IL4+ CD3+ cells” value is recorded as “significantly higher percent” and the “percent of IL4+ CD4+ T cells” value was “increase”. Further, the “CD4+CD25hi T cells (Tregs)” value in the data set on splenocytes is given as “increases the production of Tregs”. Besides, the “internalization seen by confocal microscopy” value with DC2.4 cells was “abundantly present”. Further, in data set [7] (50% (KEYA)20Q11 co-assembled with 50% NP-Q11 versus 0%), the “T cell response to pNP” value is listed as “significantly enhanced”. Moreover, the “response to re-stimulation with p(KEYA)20” value in [7] (co-assembled with 50% NP-Q11) is “strong response”. Also, the “Type 2 T cell bias upon re-stimulation with p(KEYA)20” value in [8] is reported as “statistically higher production of IL4 than IFNγ”. Besides, the “capsule formation around the injected material” value in [9] is listed as “little to no capsule formation”. The “local macrophages with nanofiber uptake” value with local macrophages is around 100%. Besides, in data set [3], the “amount retained at the site by radiant efficiency” value is on record as “greater amounts”; the “persists at the injection site and maintains immunogenicity” value is given as “up to 7 days”; the “persistence at the injection site (average days fluorescence detected)” value was found to be 5 days. For the same molecule, the “molar concentration in nanofiber necessary to stimulate a (KEYA)20-specific IgG humoral response” value with mice [10] is at least 33%. In addition, in the data set with mice [4], the “IFNγ in lavage fluid” value was “indistinguishable from PBS”, the “IL1β in lavage fluid” value is “indistinguishable from PBS” and the “IL6 in lavage fluid” value was “indistinguishable from PBS”. In the data set with mice [4] (setting [13]), the “IL4 in lavage fluid” value is listed as “significantly elevated” and the “IL5 in lavage fluid” value was “significantly elevated”. Besides, the “dendritic cell population with nanofiber uptake” value with Dendritic cells was “about 60%”. Besides, the nanofiber formation entry in data set [11] is on record as “self-assembles into nanofibers”. For the same molecule, in [5], the “induction of antibody and T cell responses” value is “strong antibody and T cell responses”. The “IL4 production by T cells (ELISpot)” value in data set [5] (week 14, compared with (KEYA)1Q11 or (KEYA)5Q11) is recorded as “significantly higher IL4 production”. The “Th2 response indicated by IgG1 versus IgG2c titers” value in the data set with mice [6] (week 14) was “strong Th2 response”. Besides, the footpad swelling result with mice [12] is recorded as “no distinguishable swelling”.
